Data from patent US9329170B2, “Single cell gene expression for diagnosis, prognosis and identification of drug targets” (The Board of Trustees of the Leland Stanford Junior …, priority 2009, dated 2016).

Test system: murine breast cancer stem cells
Experiment: clonogenic ability of murine breast cancer stem cells
Assay type: cell-based
Conditions: short, 24 hour exposure to the inhibitor; p<0.02, t test
Method: Many of these genes have been linked to self renewal and cancer. These include the insulin growth factor binding partner IGFBP3, the HOX family members HOXA3, HOXA5, ME1S1 as well as transcription factors like ETS1, ETS2, RUNX2 and STAT3. It was tested whether the transcription factor STAT3 is a bona fide cancer stem cell regulator. STAT3 plays a role in the maintenance of both ES cells and HSCs. […] Next, when we examined immunochemistry analysis of breast tumors the STAT3 positive cells tended to be concentrated on the invasive edge of the cancer and the protein was not seen in the more differentiated-looking cells in the interior parts of tumors. Finally, there are small molecule inhibitors of STAT3. Such inhibitors can be tested in cancer stem cell models. The effect of the STAT3 inhibitor cucurbitacin on the clonogenic ability of murine breast cancer stem cells was tested.

cucurbitacin
reduction of the number of colonies: ~50%
